# Patent US7767118B2, “Nanoparticles from supercritical fluid antisolvent process using particle growth and agglomeration retardants” (Ferro Corporation, priority 2003, dated 2010)
# How the values were obtained:
# [1] = Particle size distribution by laser light scattering; format: physicochemical; conditions: FIG. 5, standard deviation 1.87 microns, particles precipitated in SC-CO2 at 40° C., 80 bar with alpha D glucose penta acetate
# Experimental: The mean diameter of the acetaminophen particles formed in the Example was measured using the conventional laser light scattering technique, which is known in the art. FIG. 5 is a graph showing the size distribution of particles. The mean volume diameter of the particles was 4.08 microns and the standard deviation was 1.87 microns.
# [2] = Scanning electron micrographs of the particles formed in the Example; format: physicochemical; conditions: particles precipitated from acetone into SC-CO2 at 40° C., 80 bar with alpha D glucose penta acetate as growth retardant; FIGS. 4A and 4B; substantially uniform in size, circular in shape
# Excerpt: FIGS. 4A and 4B are scanning electron micrographs of the acetaminophen particles formed in the Example at two magnifications. […] Some minimal particle agglomeration or bridging is apparent.
compound,measurement,setting,value
CC(=O)Nc1ccc(O)cc1 [acetaminophen],mean volume diameter of the particles,[1],4.08 microns
same,particle size (scanning electron micrographs),[2],1-2 microns
